The text below walks through data of article PMC12051620, “Molecular basis underlying the specificity of an antagonist AA92593 for mammalian melanopsins” (The Journal of Biological Chemistry, 2025).

What all share (assay): GsX GloSensor assay with Gsα/q11
Holding throughout (assay type): cell-based, Branchiostoma lanceolatum
Holding throughout (conditions): 16.7 μM AA92593, COS-1 cells

For assay [1], the system named is lanceolatum melanopsin A269^6.52S mutant. An excerpt: (§1) We assessed the effect of the antagonist on the mutants using the GsX GloSensor assay with Gsα/q11. […] Furthermore, the double substitution F189^ECL2W/I207^5.42F further increased the susceptibility of the lanceolatum melanopsin to the antagonist by ∼88% (Fig. 7, G, H, and I). The AA92593-induced inhibition of the double mutant F189^ECL2W/I207^5.42F was as efficient as that of human melanopsin (Fig. 7I). […] Taken together, the introduction of Trp-189^ECL2 and Phe-207^5.42 rendered lanceolatum melanopsin highly sensitive to the antagonist (Fig. 7, G, H, and I).
(§2) For GloSensor assay, opsins, GloSensor assay sensor (coded by pGlo-22F), and NanoBiT-tagged G proteins were transiently expressed in COS-1 cells (kindly provided from Dr David Farrens, Oregon Health and Science University) using PEI as described previously ([24], [52]). For the GsX GloSensor assay ([12], [13]), each well of a 96-well assay plate (Corning) was transfected with 50 ng opsin plasmid, 16.7 ng G protein plasmid, 50 ng pGlo-22F plasmid (Promega), and 500 ng PEI in 25 μl Opti-mem and 75 μl Dulbecco's modified Eagle's medium (D-MEM). For NanoBiT G protein dissociation assay, each well of a 96-well assay plate was transfected with 50 ng opsin plasmid, 5 ng Lg-BiT inserted Gqα (Gqα-LgBiT) plasmid, 25 ng Gβ1 plasmid, 25 ng Sm-BiT fused Gγ2 plasmid, 5 ng RIC8A plasmid, and 500 ng PEI in 25 μl Opti-mem and 75 μl D-MEM. For GFP-fluorescence microscopy, a 35-mm cell culture dish (IWAKI) was transfected with 2 μg melanopsin-GFP plasmid and 8 μg PEI in 400 μl Opti-mem and 1.2 ml D-MEM. […]
(§3) The transfected COS-1 cells were incubated at 37 °C, 5% CO2 for 2 days, and the medium was aspirated and exchanged with 50 μl of HBSS (145 mM NaCl, 10 mM D-glucose, 5 mM KCl, 1 mM MgCl2, 1.7 mM CaCl2, 1.5 mM NaHCO3, 10 mM Hepes, pH 7.4), containing 33.3, 20, 10, 2, 0.2, 0.02, 0.002, or 0 μM AA92593, 0.5% dimetyl sulfoxide (DMSO), and 4% (vol/vol) GloSensor cAMP reagent stock solution. […] Then, the cells were incubated at room temperature for 1 h, and luminescence changes were monitored. After incubation of the cells with AA92593, luminescence measurement was interrupted, the plate was ejected, and the cells were added with 50 μl of HBSS containing 0.2 μM 9-cis-retinal. […] Luminescence was measured using GM-2000 or GM-3510 microplate reader (Promega). Luminescence level of each well was measured every 30 s with integration time of 0.6 to 0.9 s. To illuminate opsins, luminescence measurement was interrupted, the plate was ejected, and the plate was illuminated by white light with CN-160 LED video light (light intensity, ∼9 mW/cm^2) (NEEWER). […] After illumination, luminescence measurement was resumed. The measured luminescence levels were normalized to the level at the starting point (time = 0 min). […]

Assay [2] concerns lanceolatum melanopsin F189^ECL2W mutant.
From the text: as §1, §2, §3

Assay [3] relates to lanceolatum melanopsin I207^5.42F mutant.
From the text: as §1, §2, §3

For assay [4], the system named is lanceolatum melanopsin I207^5.42L mutant.
From the text: as §1, §2, §3

For the molecule `COc1ccc(S(=O)(=O)N2CCCCC2)cc1C` [AA92593], the “change in sensitivity to AA92593 vs WT” value in assay [1] and in assay [4] was “little changes” in each case. The “increase in sensitivity to AA92593 vs WT” value in assay [2] is around 21%; in assay [3], around 42%.
